As usually defined, the melting point is the temperature, or range, at which the solid turns liquid.

The structures appear in SMILES notation.

Compound `O=C(CF)NC[C@H]1CN(c2ccc(N3CCN(c4ccc([N+](=O)[O-])s4)CC3)c(F)c2)C(=O)O1` returned a melting point of 145 to 150 °C.
Consider `COC(=O)c1ccc(NC(=O)C(=O)c2ccc3c(c2)C(C)(C)CCC3(C)C)cc1O`, for which the melting point lay in the range of 146 to 147 °C.
`COc1cc2c(c(OC)c1OC)-c1ccc(NC(=O)C(C)NC(=O)OCc3ccccc3)cc1C(NC(C)=O)CC2` (centres undefined) displayed a melting point of 140 to 141 °C.
The figure for `Cc1ccc2c(Cl)cc(S(=O)(=O)F)c(O)c2n1` is 196 to 198 °C; for `O=C(O)c1ccc(-c2ccncc2)cc1[N+](=O)[O-]` it is 314 to 316 °C.
As for `COCC(=O)C1CCC2C3CCC4CC(=O)CCC4(C)C3CCC12C` (centres undefined), the melting point came out at 156 °C.
For the compound `CCCCCCCCCCCC(=O)c1ccc(/C=C/C(=O)O)o1`, the melting point was 122 to 127 °C.
The same measure for `CCOc1cc(=O)oc2cc(CBr)ccc12`: 150 to 153 °C; for `CN(C)c1cc(C(O)c2ccccc2)c([N+](=O)[O-])cc1[N+](=O)[O-]` (centres undefined): 147 to 150 °C.
`CCOC(=O)C=Cc1ccc(NC(C)=O)cc1` showed a melting point of 126 to 127 °C.
Turning to `CCOc1nc(C(F)(F)F)cc(=O)n1-c1cc(OC(C)C)c(Cl)cc1F`, the melting point was 101 to 103 °C.
Compound `NS(=O)(=O)c1cc(C(=O)CBr)ccc1Cl` came in with a melting point of 169 °C.
The figure for `Cc1nc(N2CCN(Cc3ccccc3)C2=O)sc1C(=O)NCc1ccccc1` is 169 to 171 °C; for `COc1ccc2c(c1)c(-c1cc3c(C(=O)O)ccnc3[nH]1)cn2C` it is above 300 °C; for `O=[N+]([O-])c1ccc(C=Cc2ccc(OCC(O)CO)cc2)cc1` (centres undefined) it is 147 °C.
In the case of `CCC(C)Nc1c([N+](=O)[O-])cc(C)c(C)c1[N+](=O)[O-]` (centres undefined), the melting point lay within 37 to 38.5 °C.
In turn, `Cc1cc(CCC(=O)O)nc(-c2nc(=O)c3ccccc3s2)c1` returned a melting point of 245 to 246 °C.
The compound `COc1ccc(CN2C(=O)c3ccccc3C2=O)cc1OC` returned a melting point of 160 to 161 °C.
`CCN(CC)CCOc1ccc2cc3ccc(OCCN(CC)CC)c(Cl)c3nc2c1Cl`: the melting point was in the range of 83 to 84 °C.
The same measure for `O=C(N=c1sc2cc(C(F)(F)F)ccc2n1CCO)C(F)(F)F`: 198 °C; for `CCOC(=O)C1(c2ccccc2)CCN(C/C=C/C(C#N)(c2ccccc2)c2ccccc2)CC1`: 100 to 102 °C; for `CC(Oc1ccc2nc(-c3ccccc3OC(N)=O)sc2c1)c1c(F)ccc(Cl)c1Cl` (centres undefined): 210 to 220 °C.
On to `COc1ccc(-c2cc(F)ccc2C#N)cc1`, for which the melting point was in the range of 145 to 147 °C.
On to `CCOC(=O)c1cc(C(=O)c2cccc(S(=O)(=O)F)c2)sc1NC(=O)OCC(Cl)(Cl)Cl`, for which the melting point was in the range of 108 to 110 °C.
Regarding `CN(C)c1ccc(-c2c(N3CCCC3C(=O)OC(C)(C)C)c(=O)c2=O)cc1` (centres undefined), the melting point was 115 °C.
Turning to `C#Cc1ccc(-c2c(C)n[nH]c(=O)c2-c2c(F)cc(F)cc2F)cc1`, the melting point lay within 252 to 254 °C.
`COCC1(O)CCN(c2ccc(N3C[C@H](CNC(C)=O)OC3=O)cc2F)CC1` had a melting point of 80 to 82 °C.
The compound `CC(=O)CC1=C(C#N)C(c2cccc(C#N)c2Br)c2c[nH]nc2N1` (centres undefined) registered a melting point of 230 °C.
The same measure for `CCCOc1ccc(-c2cccc(/C=C/C(=O)OCC)c2)cc1OC`: 66 to 68 °C.
The figure for `O=C(O)CCc1cn(Cc2ccc(OCc3ccsc3)cc2)cc1-c1ccccc1` is 118 to 119 °C; for `COC(=O)C(=CNc1ccc(F)c(F)c1OCC(C)OS(=O)(=O)c1ccc(C)cc1)C(=O)OC` (centres undefined) it is 89 to 90 °C.
`NCC1COc2cc(Cl)cc(-c3ccc(Cl)cc3C(F)(F)F)c2N1` (centres undefined) had a melting point of 95 °C.
For the compound `Clc1ccc(CCC(Cn2ccnc2)Sc2c(Cl)cc(Cl)cc2Cl)cc1` (centres undefined), the melting point was determined as 132 °C.
Turning to `CCCC(=O)c1cnc2c(C(O)CN(C)C)cccc2c1Nc1ccccc1C` (centres undefined), the melting point was in the range of 95 to 96 °C.
Turning to `CC(C)(C)NC(=O)N1CCn2cc(-c3ccccc3)c(C(N)=O)c2C1`, the melting point was 156 to 158 °C.
As for `COC(=O)C1=C(CO)NC(C)=C(C(=O)OC(C)C)C1c1ccccc1C#N` (centres undefined), the melting point was 134 to 137 °C.
The same measure for `CCCc1c(O)c(F)cc(C(C)=O)c1O`: 129 to 130 °C; for `CCCC1=C(C#N)C(c2ccccc2Cl)c2c(n[nH]c2C2CCCCC2)N1` (centres undefined): above 270 °C; for `CC(C)n1nc(-c2c(-c3ccccc3)nn3cccc(OCCN(C)C)c23)ccc1=O`: 137 to 138 °C.
The same measure for `CC(C)=CCC/C(C)=C/COCC(=O)c1cc(C(C)(C)C)c(O)c(C(C)(C)C)c1`: 50 °C; for `CN(C(=N)N)c1nccc(Oc2ccc(NC(=O)c3cc(F)cc(N4CCOCC4)c3)c3ccccc23)n1`: 155 to 157 °C; for `Cc1cccnc1C(CO)COc1ccc(CC2SC(=O)NC2=O)cc1` (centres undefined): 182 to 183 °C.
The same measure for `CC(=O)C(C)n1nc(C(=O)NC2CN(C)CCN(Cc3ccccc3)C2)c2ccccc21` (centres undefined): 97 to 100 °C; for `CC(C)(C)OC(=O)NC[C@H](O)CC(=O)NN`: 144 °C.
Regarding `CC(CNC(=O)Cc1ccccc1)NCC(O)c1ccccc1` (centres undefined), the melting point was in the range of 96 to 98 °C.
As to `Cn1nc(-n2ncc(C(N)=S)c2N)c(Cl)c1OC(F)F`, the melting point stood at 156 °C.
Compound `CCn1c(C=Cc2ccccc2)cnc1[N+](=O)[O-]` displayed a melting point of 154 to 156 °C.
For `CSc1ccc(Nc2nc(=O)cc(N)n2-c2ccccc2)cc1`, the melting point was in the range of 133 to 135 °C.
In turn, `CCOC(=O)N1CCN(C(=O)Cn2sc3ccccc3c2=O)CC1` returned a melting point of 158 to 160 °C.
As to `N#Cc1ccc2nc(-c3cccc(Br)c3)cn2c1`, the melting point fell in the range of 205 to 206 °C.
`COc1ccc([C@@H]2CCCC[C@@H]2N)cc1OC` registered a melting point of 80 to 81.5 °C.
The same measure for `CCOP(=O)(Cc1nnc2c(=O)[nH]c3cc(C(F)(F)F)c(N)cc3n12)OCC`: 260 to 263 °C.
The figure for `CCOC(=NC(=O)C1CC1)N1Cc2ccccc2-c2ccccc2C1` is 97 to 99 °C.
`CS(=O)(=O)c1c(N2CCN(C(=O)c3cccs3)CC2)c2cccnc2n(Cc2ccccc2)c1=O` registered a melting point of 223 °C.
In turn, `O=[N+]([O-])c1cc(S(=O)(=O)N(CCO)CCO)sc1Cl` displayed a melting point of 100 °C.
The compound `CCCCc1nc(Cl)c(CC(=O)O)c(Cc2ccc(C(=O)O)cc2)n1` yielded a melting point of 205 °C.
`CCCCC(O)CN1CCC2(CC1)CSC1=C(O2)c2ccccc2C(=O)C1=O` (centres undefined): the melting point fell in the range of 160 to 163 °C.
In turn, `CC1(c2ccccc2)CN(c2ccnc(N)c2)C(=O)O1` (centres undefined) registered a melting point of 140 to 141 °C.
`COc1ccc(NC(=O)c2ccc(F)c(F)c2)cc1NCc1cccc(C(=O)O)c1` had a melting point of 218 to 221 °C.
For the compound `CSc1cccc2c1Oc1ccccc1N2[Si](C)(C)C(C)(C)C`, the melting point was in the range of 61 to 62 °C.
On to `ClC(Cl)(Cl)C1Nc2ccccc2CO1` (centres undefined), for which the melting point lay within 90 to 92 °C.
As for `COc1ccc(-c2c(-c3cc(OC)c(OC)c(OC)c3)ncn2-c2ccccc2)cc1O`, the melting point is 176 to 177 °C.
`CN(C)Cc1c[nH]c2ccc(Cl)cc12` displayed a melting point of 127 to 130 °C.
`Cc1ncn(-c2cc(F)ccc2CNC(=O)c2nc3n(c(=O)c2OCc2ccccc2)CCOC3(C)C)n1` returned a melting point of 203 °C.
Compound `Cc1noc(NS(=O)(=O)c2ccccc2-c2ccccc2)c1C` had a melting point of 154 to 155 °C.
`O=S(=O)(Nc1ccc2c(OCc3coc(-c4ccc(Cl)cc4)n3)cccc2c1)C(F)(F)F` registered a melting point of 198 to 200 °C.
The compound `NS(=O)(=O)c1ccc(NC(=O)c2ccccc2S)cc1` came in with a melting point of 230 to 231 °C.
Consider `COC(=O)c1nsnc1Br`, for which the melting point is 57 to 58 °C.
Regarding `Cn1cc(C2=C(c3c4n(c5ccccc35)CCC(CNC=O)C4)C(=O)NC2=O)c2ccccc21` (centres undefined), the melting point was in the range of 332 to 334 °C.
Regarding `COc1cc(COc2cc(N)c(Cl)cc2C(=O)CCCCN2CCC(C)CC2)cc(OC)c1`, the melting point was 136 to 137 °C.
In turn, `COC(=O)CCCCCNC(=O)C[C@H]1O[C@H](c2cccc(OC)c2OC)c2cc(Cl)ccc2N(CC(C)(C)CO)C1=O` returned a melting point of 131 to 132 °C.
Regarding `CCOC(=O)c1nc2c(Cl)cccc2n(-c2ccc(OC)cc2)c1=O`, the melting point is 128 to 129 °C.
The same measure for `O=C(O)CCC(=O)NCCCCCC1CCSS1` (centres undefined): 74 °C; for `Cc1cc(Oc2cccc(C(F)(F)F)c2)nn1C(=O)Nc1ccc(Cl)c(Cl)c1`: 97 to 99 °C; for `CCOC(=O)c1c(Cl)c2cc(F)ccc2n(Cc2ccccc2)c1=O`: 118 °C.
For `Cc1nccn1NCc1cc(C(C)(C)C)c(O)c(C(C)(C)C)c1`, the melting point lay within 181 to 182 °C.
`CC(C)CCNC(=O)c1c(N)cc(Cl)cc1Cl` gave a melting point of 148 to 150 °C.
The figure for `CCOC(=O)c1ccc2ncccc2c1` is 66 to 67 °C; for `NC(=O)C1Cc2c([nH]c3ccccc23)CN1` (centres undefined) it is 212 to 216 °C; for `CC1CN(N)C(=O)N1C` (centres undefined) it is 162 to 164 °C.
As to `COC(=O)CC(NC(=O)C1CCCCC1)C(C)=O` (centres undefined), the melting point was in the range of 87 to 88 °C.
In the case of `Cc1cccc(C)c1C(CNC(=O)OC(C)(C)C)COCc1c(F)cccc1F` (centres undefined), the melting point came out at 100 °C.
In the case of `CCCCOCc1cc2ccccc2oc1=Nc1ccccc1`, the melting point is 86 to 88 °C.
In turn, `CC=C1c2ccccc2CC(=NO)c2ccccc21` returned a melting point of 128 to 131 °C.
Compound `CCOC(=O)C1=C(N)N=C(OCC)C(C(=O)OCC)C1c1ccccc1` (centres undefined) returned a melting point of 119 °C.
With `CCc1cc2c(c(CC)n1)CCC(=O)N2Cc1ccc(-c2ccccc2-c2nnn(C(c3ccccc3)(c3ccccc3)c3ccccc3)n2)cc1`, the melting point fell in the range of 165 to 167 °C.
The compound `NC(=O)NC(CS)Cc1ccccc1` (single isomer, unassigned; (+)) had a melting point of 118 °C.
The same measure for `O=Cc1nn(-c2ccc(F)cc2)c2c1CCC2`: 123 to 125 °C.
Take `Cc1ccc(NN2C=c3cc(-c4c(Cl)cccc4Cl)c(=O)n(C)c3=NC2)cc1`: the melting point lay in the range of 243 to 245 °C.

The values above are taken from a melting point compilation (Tetko et al.; mined from patent text by program, amines drawn as free bases though some values may be those of a salt).
